Experimental data reported in ChEMBL document CHEMBL1129019, “CCK-4 restricted analogues containing a 3-oxoindolizidine skeleton” (Bioorg Med Chem Lett, 1996).

How the values were obtained:
[1] = target: T1, Gastrin/cholecystokinin type B receptor (Rattus norvegicus, UniProt P30553); experiment: Binding of [3H]propionyl-CCK-8 to Cholecystokinin type B receptor from rat cerebral cortex.; assay type: tissue-based
T1 sequence (P30553 whole entry): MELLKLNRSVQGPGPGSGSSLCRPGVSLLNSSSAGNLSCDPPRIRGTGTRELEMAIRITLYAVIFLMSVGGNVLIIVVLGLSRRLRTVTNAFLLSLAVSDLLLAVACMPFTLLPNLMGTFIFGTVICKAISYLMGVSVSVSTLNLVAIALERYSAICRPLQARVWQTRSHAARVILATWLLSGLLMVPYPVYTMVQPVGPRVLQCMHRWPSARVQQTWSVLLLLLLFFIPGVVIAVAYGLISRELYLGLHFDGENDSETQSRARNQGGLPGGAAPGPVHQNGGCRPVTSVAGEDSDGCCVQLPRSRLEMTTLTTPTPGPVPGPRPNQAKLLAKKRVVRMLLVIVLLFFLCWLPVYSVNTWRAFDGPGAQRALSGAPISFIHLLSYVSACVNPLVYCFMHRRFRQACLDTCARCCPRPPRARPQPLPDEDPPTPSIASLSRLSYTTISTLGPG

[2] = target: T2, Cholecystokinin receptor type A (Rattus norvegicus, UniProt P30551); experiment: Binding of [3H]propionyl-CCK-8 to Cholecystokinin type A receptor from rat pancreas
T2 sequence (P30551 whole entry): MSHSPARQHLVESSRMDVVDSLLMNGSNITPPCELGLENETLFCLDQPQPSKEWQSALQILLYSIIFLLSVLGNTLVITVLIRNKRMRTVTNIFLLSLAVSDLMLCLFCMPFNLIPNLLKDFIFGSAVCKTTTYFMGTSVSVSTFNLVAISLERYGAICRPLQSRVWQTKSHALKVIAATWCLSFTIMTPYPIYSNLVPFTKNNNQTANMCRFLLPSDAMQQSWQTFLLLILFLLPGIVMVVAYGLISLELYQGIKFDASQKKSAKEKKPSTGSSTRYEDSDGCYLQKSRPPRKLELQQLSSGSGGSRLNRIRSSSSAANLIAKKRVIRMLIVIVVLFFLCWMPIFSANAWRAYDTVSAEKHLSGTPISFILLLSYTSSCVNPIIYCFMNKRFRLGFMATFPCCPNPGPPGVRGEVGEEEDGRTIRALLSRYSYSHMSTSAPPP

IC50 [1] [µM] | IC50 [2] [nM] | Structure (SMILES)
> 10 | 2350 | COC(=O)[C@@]1(Cc2ccccc2)C[C@@H]2[C@@H](NC(=O)[C@H](Cc3c[nH]c4ccccc34)NC(=O)OC(C)(C)C)CCCN2C1=O
> 10 | > 10000 | COC(=O)[C@]1(Cc2ccccc2)C[C@H]2[C@H](NC(=O)[C@H](Cc3c[nH]c4ccccc34)NC(=O)OC(C)(C)C)CCCN2C1=O
0.009 | 1120 | CC1(C)[C@H]2CC[C@@]1(C)[C@H](OC(=O)N[C@](C)(Cc1c[nH]c3ccccc13)C(=O)NC[C@H](NC(=O)CCC(=O)O)c1ccccc1)C2
3.72 | > 10000 | COC(=O)[C@]1(Cc2ccccc2)C[C@@H]2[C@@H](NC(=O)[C@@H](Cc3c[nH]c4ccccc34)NC(=O)OC(C)(C)C)CCCN2C1=O
> 10 | > 10000 | COC(=O)[C@@]1(Cc2ccccc2)C[C@H]2[C@H](NC(=O)[C@@H](Cc3c[nH]c4ccccc34)NC(=O)OC(C)(C)C)CCCN2C1=O
3.53 | > 10000 | CC(C)(C)OC(=O)N[C@@H](Cc1c[nH]c2ccccc12)C(=O)N[C@H]1CCCN2C(=O)[C@](Cc3ccccc3)(C(N)=O)C[C@H]12
> 10 | > 10000 | COC(=O)[C@@]1(Cc2ccccc2)C[C@@H]2[C@@H](NC(=O)[C@@H](Cc3c[nH]c4ccccc34)NC(=O)OC(C)(C)C)CCCN2C1=O
0.22 | > 10000 | COC(=O)[C@]1(Cc2ccccc2)C[C@@H]2[C@@H](NC(=O)[C@@H](Cc3c[nH]c4ccccc34)NC(=O)C34CC5CC(CC(C5)C3)C4)CCCN2C1=O
> 10 | 1020 | CC(C)(C)OC(=O)N[C@@H](Cc1c[nH]c2ccccc12)C(=O)N[C@H]1CCCN2C(=O)[C@@](Cc3ccccc3)(C(N)=O)C[C@H]12
0.82 | > 10000 | CC(C)(C)OC(=O)N[C@H](Cc1c[nH]c2ccccc12)C(=O)N[C@H]1CCCN2C(=O)[C@](Cc3ccccc3)(C(N)=O)C[C@H]12
2.19 | 980 | COC(=O)[C@@]1(Cc2ccccc2)C[C@H]2[C@H](NC(=O)[C@@H](Cc3c[nH]c4ccccc34)NC(=O)C34CC5CC(CC(C5)C3)C4)CCCN2C1=O
